Calls of active or inactive are those of the source.
How the values were obtained:
[1] = Counterscreen for activators of the function of SWI/SNF related, matrix associated, actin dependent regulator of chromatin, subfamily a, member 2 (SMARCA2, BRM): Luminescence-based cell-based high throughput dose response assay to identify non-selective compounds using the VP16 reporter assay.; format: functional
HEK293 [2] = assay: cells; settings: Homo sapiens
[3] = target: Beta-2 adrenergic receptor (Homo sapiens, UniProt P07550); assay: beta2AR agonists driving receptor internalization, dose response, cell-based, FAP fluorogen, flow cytometry, cherry pick 1 (AID 588763); format: functional
HEK293 [4] = assay: cells; settings: Homo sapiens; remark: listed apart in the source
[5] = target: SWI/SNF-related matrix-associated actin-dependent regulator of chromatin subfamily A member 2 (Homo sapiens, UniProt P51531); assay: Luminescence-based cell-based high throughput dose response assay to identify activators of the function of SWI/SNF related, matrix associated, actin dependent regulator of chromatin, subfamily a, member 2 (SMARCA2, BRM).; format: functional
[6] = target: T1, Scavenger receptor class B member 1 (Mus musculus, UniProt Q61009); assay: inhibitors of SR-BI dependent HDL uptake, dose response, ldlA[mSR-BI] CHO cells, fluorescence plate reader, dry powder, set 9 (AID 623880); format: functional, cell-based
T1 sequence (Q61009 whole entry): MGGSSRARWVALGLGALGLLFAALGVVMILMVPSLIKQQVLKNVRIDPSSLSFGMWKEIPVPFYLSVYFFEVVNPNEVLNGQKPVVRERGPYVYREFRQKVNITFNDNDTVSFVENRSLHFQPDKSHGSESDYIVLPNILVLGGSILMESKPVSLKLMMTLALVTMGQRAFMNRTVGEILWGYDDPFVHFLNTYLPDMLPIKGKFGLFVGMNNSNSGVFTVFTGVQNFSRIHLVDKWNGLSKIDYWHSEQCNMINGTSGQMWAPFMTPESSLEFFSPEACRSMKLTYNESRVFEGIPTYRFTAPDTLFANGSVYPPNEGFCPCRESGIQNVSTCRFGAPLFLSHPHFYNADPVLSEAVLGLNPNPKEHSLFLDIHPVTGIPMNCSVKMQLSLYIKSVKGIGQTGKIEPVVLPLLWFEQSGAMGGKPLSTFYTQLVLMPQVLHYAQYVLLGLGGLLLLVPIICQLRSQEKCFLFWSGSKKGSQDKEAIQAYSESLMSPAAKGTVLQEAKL

[7] = target: T1, Scavenger receptor class B member 1; assay: inhibitors of SR-BI-mediated HDL uptake, dose response, cell-based, ldlA[mSR-BI] CHO, DiI fluorescence, dry powder, set 10 (AID 624029); format: functional
[8] = cytotoxicity in OVCAR8 ovarian cancer cells, dose response, PAX8 project, cell-based, plate reader, dry powder samples (AID 743197); format: functional; settings: OVCAR-8
Paired box protein Pax-8 = Paired box protein Pax-8 (Homo sapiens, UniProt Q06710); assay: inhibitors of PAX8-driven TPO luciferase reporter, dose response, RMG-I cells, cherry-pick (AID 687027); format: functional, cell-based;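 note: luciferase reporter driven by Pax8 target thyroperoxidase promoter measured by SteadyGlo luminescence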
[9] = IGROV1 ovarian cancer cell cytotoxicity, dose response, PAX8 inhibitor project, plate reader, dry powder samples (AID 743043); format: functional, cell-based; settings: IGROV-1
[10] = IOSE-T80 ovarian epithelial cell cytotoxicity, dose response, cytotoxicity control for PAX8 inhibitor project, plate reader, dry powder samples (AID 743045); format: functional, cell-based
[11] = NIH:OVCAR-3 ovarian cancer cell cytotoxicity, dose response, PAX8 inhibitor project, plate reader, dry powder samples (AID 743044); format: functional, cell-based
[12] = target: Endoplasmic reticulum aminopeptidase 1 (Homo sapiens, UniProt Q9NZ08); assay: ERAP1 aminopeptidase inhibitors, dose response, biochemical, cherry-pick, set 2, plate reader (AID 743314)
Beta-galactosidase = Beta-galactosidase (Escherichia coli, UniProt Q8VNN2); assay: Dose response counterscreen for EBI2 assay utilizing the enzyme, b-galactosidase.; format: functional
[13] = NIH3T3 fibroblast cytotoxicity, dose response, cytotoxicity control for PglD inhibitor project, cell-based, CellTiter-Glo luminescence, dry powder (AID 652044); format: functional
[14] = target: COUP transcription factor 2 (Homo sapiens, UniProt P24468); assay: Luminescence-based cell-based high throughput dose response assay to identify inhibitors of COUP-TFII (NR2F2).; format: functional;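 note: HEK293 cells transiently cotransfected with COUP-TFII expression vector and reporter; luciferase reporter luminescence driven by COUP-TFII from the pX2-168 reporter plasmid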
Protein Wnt-3a = Protein Wnt-3a (Mus musculus, UniProt P27467); assay: SAR analysis of small molecule antagonists of Gli-SUFU in a Wnt3a luminescent reporter assay.; format: functional
[15] = target: Fructose-bisphosphate aldolase (Mycobacterium tuberculosis, UniProt P9WQA3); assay: Fluorescence-based biochemical high throughput dose response assay for inhibitors of the fructose-bisphosphate aldolase (FBA) of M. tuberculosis.; format: functional
Sequence of Fructose-bisphosphate aldolase (P9WQA3 whole entry): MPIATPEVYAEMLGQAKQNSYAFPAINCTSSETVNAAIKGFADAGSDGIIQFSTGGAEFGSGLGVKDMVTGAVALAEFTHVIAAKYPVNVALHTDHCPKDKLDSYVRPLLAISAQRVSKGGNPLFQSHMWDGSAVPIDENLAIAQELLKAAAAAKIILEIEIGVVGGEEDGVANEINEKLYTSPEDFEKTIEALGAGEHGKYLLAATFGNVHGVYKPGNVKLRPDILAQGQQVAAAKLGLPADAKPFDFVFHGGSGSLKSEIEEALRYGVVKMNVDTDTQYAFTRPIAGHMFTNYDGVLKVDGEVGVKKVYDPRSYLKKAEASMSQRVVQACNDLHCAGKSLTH

Sequence of Paired box protein Pax-8 (Q06710 whole entry): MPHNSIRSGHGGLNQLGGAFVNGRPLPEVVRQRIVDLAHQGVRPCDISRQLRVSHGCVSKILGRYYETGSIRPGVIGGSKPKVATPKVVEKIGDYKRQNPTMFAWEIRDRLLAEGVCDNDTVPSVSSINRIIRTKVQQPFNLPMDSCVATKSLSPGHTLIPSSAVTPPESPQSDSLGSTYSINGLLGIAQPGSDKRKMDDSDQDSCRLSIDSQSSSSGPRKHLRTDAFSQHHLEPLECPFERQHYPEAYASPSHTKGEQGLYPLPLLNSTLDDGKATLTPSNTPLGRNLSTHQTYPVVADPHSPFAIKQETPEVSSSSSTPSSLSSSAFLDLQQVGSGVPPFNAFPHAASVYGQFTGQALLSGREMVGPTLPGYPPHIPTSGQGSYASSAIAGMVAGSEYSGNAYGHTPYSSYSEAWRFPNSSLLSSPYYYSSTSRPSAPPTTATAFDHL
Sequence of Protein Wnt-3a (P27467 whole entry): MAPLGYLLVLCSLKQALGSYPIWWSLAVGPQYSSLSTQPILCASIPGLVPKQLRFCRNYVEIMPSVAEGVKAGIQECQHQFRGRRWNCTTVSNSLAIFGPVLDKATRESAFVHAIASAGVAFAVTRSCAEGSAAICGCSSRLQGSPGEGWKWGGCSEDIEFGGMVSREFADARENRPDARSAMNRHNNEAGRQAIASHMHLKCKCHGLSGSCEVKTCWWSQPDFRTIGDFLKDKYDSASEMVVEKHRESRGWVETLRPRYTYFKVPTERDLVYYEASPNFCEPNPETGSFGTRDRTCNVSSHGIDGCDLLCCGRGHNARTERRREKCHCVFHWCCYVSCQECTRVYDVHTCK
Sequence of Endoplasmic reticulum aminopeptidase 1 (Q9NZ08 whole entry): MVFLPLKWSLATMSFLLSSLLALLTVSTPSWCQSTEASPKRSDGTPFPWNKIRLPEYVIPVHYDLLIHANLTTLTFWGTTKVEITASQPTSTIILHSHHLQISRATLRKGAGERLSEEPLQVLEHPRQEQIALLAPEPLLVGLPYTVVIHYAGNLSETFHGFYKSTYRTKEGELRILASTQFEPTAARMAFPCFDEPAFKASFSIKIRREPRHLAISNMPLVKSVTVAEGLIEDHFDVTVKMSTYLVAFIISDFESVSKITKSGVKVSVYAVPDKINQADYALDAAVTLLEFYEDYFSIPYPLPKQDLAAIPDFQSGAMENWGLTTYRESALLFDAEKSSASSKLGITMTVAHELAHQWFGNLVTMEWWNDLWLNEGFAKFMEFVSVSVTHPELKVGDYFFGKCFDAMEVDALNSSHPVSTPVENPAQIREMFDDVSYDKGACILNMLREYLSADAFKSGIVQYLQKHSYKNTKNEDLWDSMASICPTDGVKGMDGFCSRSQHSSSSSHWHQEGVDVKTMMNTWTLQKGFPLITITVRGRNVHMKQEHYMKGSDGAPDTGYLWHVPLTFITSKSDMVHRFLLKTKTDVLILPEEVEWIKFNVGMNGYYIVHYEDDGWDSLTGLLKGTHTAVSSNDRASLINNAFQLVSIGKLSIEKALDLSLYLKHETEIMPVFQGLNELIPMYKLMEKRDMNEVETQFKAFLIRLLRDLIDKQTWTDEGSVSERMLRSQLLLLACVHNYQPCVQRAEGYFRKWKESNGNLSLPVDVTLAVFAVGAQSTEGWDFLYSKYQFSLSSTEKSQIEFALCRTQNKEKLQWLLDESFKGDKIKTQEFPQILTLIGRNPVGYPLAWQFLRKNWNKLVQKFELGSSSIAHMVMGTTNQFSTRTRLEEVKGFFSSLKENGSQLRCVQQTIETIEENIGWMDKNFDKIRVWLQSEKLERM
Sequence of COUP transcription factor 2 (P24468 whole entry): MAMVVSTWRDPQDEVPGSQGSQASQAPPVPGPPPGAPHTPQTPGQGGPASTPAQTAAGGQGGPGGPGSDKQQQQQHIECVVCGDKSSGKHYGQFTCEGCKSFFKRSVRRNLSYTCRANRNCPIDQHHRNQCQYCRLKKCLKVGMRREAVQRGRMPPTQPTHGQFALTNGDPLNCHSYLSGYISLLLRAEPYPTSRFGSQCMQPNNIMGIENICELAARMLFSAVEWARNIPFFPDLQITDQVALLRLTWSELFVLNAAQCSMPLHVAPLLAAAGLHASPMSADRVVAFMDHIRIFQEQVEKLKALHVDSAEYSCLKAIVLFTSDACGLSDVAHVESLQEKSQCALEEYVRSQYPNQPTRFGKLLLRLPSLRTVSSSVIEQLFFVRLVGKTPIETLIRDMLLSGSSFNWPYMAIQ
Sequence of Beta-galactosidase (Q8VNN2 whole entry): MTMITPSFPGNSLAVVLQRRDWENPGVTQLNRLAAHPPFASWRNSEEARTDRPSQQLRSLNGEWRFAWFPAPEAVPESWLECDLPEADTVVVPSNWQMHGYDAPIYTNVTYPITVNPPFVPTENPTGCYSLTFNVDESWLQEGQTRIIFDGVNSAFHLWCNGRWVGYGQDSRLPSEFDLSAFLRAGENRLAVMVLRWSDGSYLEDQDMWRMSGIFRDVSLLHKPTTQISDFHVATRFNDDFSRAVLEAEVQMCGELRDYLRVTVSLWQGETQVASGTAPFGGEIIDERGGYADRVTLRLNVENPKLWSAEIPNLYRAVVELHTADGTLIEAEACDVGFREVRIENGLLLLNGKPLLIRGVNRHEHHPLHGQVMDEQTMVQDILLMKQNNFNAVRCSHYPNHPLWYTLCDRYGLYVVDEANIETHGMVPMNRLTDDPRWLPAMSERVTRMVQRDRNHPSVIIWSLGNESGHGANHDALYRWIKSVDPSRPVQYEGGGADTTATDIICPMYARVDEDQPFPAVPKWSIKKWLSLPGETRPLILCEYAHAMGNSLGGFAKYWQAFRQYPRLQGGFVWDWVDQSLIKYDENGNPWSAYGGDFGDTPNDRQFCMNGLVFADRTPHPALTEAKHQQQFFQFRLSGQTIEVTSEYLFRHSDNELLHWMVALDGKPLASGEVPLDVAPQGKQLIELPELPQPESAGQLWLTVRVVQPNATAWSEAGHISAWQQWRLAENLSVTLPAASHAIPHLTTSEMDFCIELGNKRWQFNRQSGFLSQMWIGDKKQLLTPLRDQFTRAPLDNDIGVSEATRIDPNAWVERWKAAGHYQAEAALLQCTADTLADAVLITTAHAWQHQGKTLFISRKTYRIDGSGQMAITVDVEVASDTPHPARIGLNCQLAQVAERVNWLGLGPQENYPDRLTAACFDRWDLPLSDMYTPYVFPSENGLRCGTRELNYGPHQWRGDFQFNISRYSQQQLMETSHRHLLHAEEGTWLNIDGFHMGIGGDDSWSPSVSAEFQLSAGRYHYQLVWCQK
Sequence of Beta-2 adrenergic receptor (P07550 whole entry): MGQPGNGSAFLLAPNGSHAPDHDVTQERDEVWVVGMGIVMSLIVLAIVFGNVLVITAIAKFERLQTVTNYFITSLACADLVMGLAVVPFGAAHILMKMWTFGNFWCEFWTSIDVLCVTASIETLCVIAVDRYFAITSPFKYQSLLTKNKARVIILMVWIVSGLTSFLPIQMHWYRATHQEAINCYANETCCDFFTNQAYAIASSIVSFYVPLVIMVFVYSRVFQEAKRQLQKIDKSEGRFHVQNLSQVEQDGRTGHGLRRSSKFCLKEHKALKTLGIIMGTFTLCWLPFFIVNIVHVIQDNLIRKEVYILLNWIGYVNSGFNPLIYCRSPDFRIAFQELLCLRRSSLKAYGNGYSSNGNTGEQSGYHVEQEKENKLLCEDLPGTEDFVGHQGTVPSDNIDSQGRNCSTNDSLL

In the case of `CC1(C)Cc2c(c(-c3ccco3)nc3sc4c(NCCCO)ncnc4c23)CO1`, the EC50 [1] is reported as > 91.2 µM (inactive), the EC50 (HEK293 [2]) is reported as > 59.6 µM (inactive) and the EC50 [3] is reported as 0.0207 µM (active). The EC50 (HEK293 [4]) was > 59.6 µM (inactive) and the EC50 [5] was > 91.2 µM (inactive).

With `COc1ccc2c(c1)CC(C1(O)C(=O)N(C)c3ccccc31)C2=O` (stereo not drawn) the AC50 [6] was > 70 µM (inactive) and the AC50 [7] was > 70 µM (inactive).

For `C[C@@H]1CCCCO[C@@H](CN(C)Cc2ccc3c(c2)OCO3)[C@H](C)CN([C@@H](C)CO)C(=O)c2cc(NC(=O)Nc3ccc(C(F)(F)F)cc3)ccc2O1`, the AC50 [8] was 30.2 µM (active), the AC50 (Paired box protein Pax-8) was 14.5 µM (active) and the AC50 [9] was 34 µM (active). For the same compound, the AC50 [10] was 63.2 µM (active) and the AC50 [11] was 15.4 µM (active).

In the case of `COC(=O)[C@@H]1[C@@H](CO)[C@@H]2Cn3c(ccc(/C=C/c4ccccc4)c3=O)[C@H]1N2C(=O)C1CCC1`, the AC50 [12] is reported as 3.47 µM (active).

With `COc1ccc(N2CCN(C(=O)c3cc(-c4ccc(F)cc4)[nH]c3C)CC2)cc1` the IC50 (Beta-galactosidase) was > 80 µM (inactive).

In the case of `C[C@@H]1CN([C@@H](C)CO)C(=O)c2cc(NC(=O)Nc3ccc(F)cc3)ccc2O[C@@H]1CN(C)CC1CCCCC1`, the AC50 [13] is reported as 43.4 µM (active).

With `Cc1ccc(-n2nc3c(=O)n(C(C)C(=O)NCCCc4ccccc4)nc(C)c3c2C)cc1` (stereo not drawn) the IC50 [14] was 11.7 µM (inactive).

In the case of `O=C(Nc1cc(N2CCCCC2)ncn1)c1ccccc1Cl`, the IC50 (Protein Wnt-3a) is reported as > 21.8 µM (inactive).

For `CN(C)c1nc(OCc2ccccc2)c2ncc(=O)[nH]c2n1`, the IC50 [15] was 2.82 µM (active).
